Consider one molecule from patent publication US20260364072A1, “METHODS FOR PROMOTING EXPANSION OF HUMAN CD34+ CELLS IN VIVO AND FOR PROMOTING NEURAL REGENERATION” (THE REGENTS OF THE UNIVERSITY OF CALIFORNIA, priority 2023, published 2026).

Data set [1] concerns ADAR1, CD44v3, MCL1-L. Nature of the data set: LSC-associated transcripts and ADAR1 activity after treatment or ADAR1 shRNA knockdown. In kind it is cell-based, human. The settings on record: phenocopied ADAR1 shRNA knockdown. An excerpt: For lentivirus-mediated knockdown of human ADAR1 in ADAR1 activation and RNA editing biomarker studies of the nanoluc-GFP reporter and endogenous transcripts, human leukemia cells were stably transduced with the lentiviral shRNA vectors targeting ADAR1 (shADAR1) or scrambled control (shCtrl) to ablate endogenous ADAR1 expression. The shRNA plasmids targeting ADAR1 (shADAR1) as well as the scrambled control (shCtrl) were purchased from VectorBuilder (Chicago, IL) (shCtrl: […] (SEQ ID NO:3) and shADAR1: […]) (SEQ ID NO:4). […] Viral titers were assessed by qRT-PCR and transduction efficiency was tested in 293T cells. […]
For quantitative analysis of splice isoform expression, RNA editing rates, and whole gene expression by qRT-PCR, cells or tissue fragments were harvested in RNA lysis buffer and total RNA was extracted using RNeasy mini or micro extraction kits (QIAGEN, Germantown, MD) following the manufacturer's protocol including a DNase incubation step to digest any trace genomic DNA present. Levels of ADAR1 variants and LSC-specific transcripts were quantified by qRT-PCR as previously described.^14 RNA-editing site-specific qRT-PCR (RESSqPCR) was performed for variants in AZIN1 transcripts.^53 Additional species-specific primers were also designed to quantify intron retention rates in cells treated with Rebecsinib as a biomarker of response to RNA splicing modulation. […]

The subject of data set [2] is MCL1 transcripts. Nature of the data set: MCL1-S/L ratio by splice isoform-specific qRT-PCR in primary CD34+ MF HPC and LSC. The data set is classed as cell-based, human. To be noted: 0.1 μM, compared with vehicle, short-term culture, no stroma. (In qPCR the cycle at which signal appears reflects the starting amount.)
For data set [3], the system named is normal aged HSPC. The data set is described as follows: ADAR1 nanoluc-GFP aged normal bone marrow CD34+ engrafted mice. In kind it is in vivo, human cells in immunocompromised mice. The settings on record: 10 mg/kg. An excerpt: To further test the utility of the ADAR1 nanoluc-GFP reporter for in vivo detection of endogenous ADAR1 activity, primary human aged normal bone marrow CD34^+ cells were transduced with the reporter vector and transplanted into immunocompromised mice. ADAR1 activity was detected by live animal bioluminescence imaging and corresponded with human cell engraftment detection by flow cytometry.
In humanized mouse models, sAML cells (CD34^+) from two unique […] patient samples that were splicing factor mutated or unmutated were utilized, including sAML50261 and sAML2008-5.^14 For in vivo efficacy and therapeutic index studies, sAML CD34^+ cells, or normal human cord blood-derived or aged bone marrow-derived HSPCs (CD34^+), were transplanted (50,000-200,000 cells per mouse) intrahepatically into neonatal Rag2^−/−γc^−/− mice, or intravenously into adult NSG-SGM3 mice (Jackson Laboratories, Bar Harbor, ME). A subset of experiments was performed with normal aged bone marrow cells that were transduced with the lentiviral ADAR1 nanoluc-GFP reporter vector prior to transplant. For transplantation into adult mice, animals were irradiated with ^137Cs at a dose of 150 cGy 24 hr before IV transplantation. […]

Data set [4] deals with RNA editing. Nature of the data set: Whole transcriptome RNA editing analysis of CD34+ cells from sAML50261 engrafted mice. In kind it is in vivo, human cells in mice. To be noted: mice treated with 5 or 10 mg/kg. On the procedure:
FIG. 30E illustrates a whole transcriptome-based RNA editing analyses of previously-described RNA-seq data^14 generated from CD34^+ cells isolated from the spleens of sAML50261 engrafted mice treated with Rebecsinib or vehicle;
For RNA editing analyses of whole transcriptome sequencing data, previous datasets were utilized from CD34^+ cells isolated from the spleens of sAML50261-engrafted mice treated once weekly with Rebecsinib in a dose-response assay (5 or 10 mg/kg),^14 along with CD34^+ cells harvested from mice that were serially transplanted with CD34+ cells from sAML50261-engrafted mice that had been treated twice weekly with Rebecsinib at 10 mg/kg (no further treatment was delivered to serial transplant recipients). Due to limiting number of cells remaining after treatment, cells were pooled from n=4 to 5 mice per condition for sequencing. RNA editing analysis was performed as previously described.^5

Data set [5] deals with sAML LSC. The data set is described as follows: Humanized sAML LSC mouse model. In kind it is in vivo, human cells in Rag2-/-γc-/- mice. The settings on record: twice weekly dosing; splicing factor mutated and unmutated samples. An excerpt:
In humanized mouse models, sAML cells (CD34^+) from two unique […] patient samples that were splicing factor mutated or unmutated were utilized, including sAML50261 and sAML2008-5.^14 For in vivo efficacy and therapeutic index studies, sAML CD34^+ cells, or normal human cord blood-derived or aged bone marrow-derived HSPCs (CD34^+), were transplanted (50,000-200,000 cells per mouse) intrahepatically into neonatal Rag2^−/−γc^−/− mice, or intravenously into adult NSG-SGM3 mice (Jackson Laboratories, Bar Harbor, ME). A subset of experiments was performed with normal aged bone marrow cells that were transduced with the lentiviral ADAR1 nanoluc-GFP reporter vector prior to transplant. […] For animals that received transplants of cells transduced with the lentiviral ADAR1 nanoluc-GFP reporter, mice were imaged 15 weeks after transplant on the IVIS 200, as previously described.^79 Following treatment with Rebecsinib (five intravenous doses total over a two-week period), hematopoietic tissues (peripheral blood, bone marrow, spleens) were collected and analyzed by flow cytometry as previously described.^14 For splice isoform-specific qRT-PCR or RNA-seq analyses on cells from in vivo studies, human CD34^+ LSC from bone marrows and spleens of engrafted mice were isolated by magnetic bead separation (Miltenyi Biotec).

Data set [6] relates to SF3B3. Nature of the data set: SF3B3 splice biomarker analysis in human CD45+ cells from normal HSPC engrafted mice. The data set is classed as in vivo. An excerpt: After completion of treatment and engraftment analyses of in vivo normal HSPC assays, total human hematopoietic cells (CD45^+) were selected for splice biomarker analyses to determine sensitivity of normal human hematopoietic cells to Rebecsinib compared with sAML LSC.
For quantitative analysis of splice isoform expression, RNA editing rates, and whole gene expression by qRT-PCR, cells or tissue fragments were harvested in RNA lysis buffer and total RNA was extracted using RNeasy mini or micro extraction kits (QIAGEN, Germantown, MD) following the manufacturer's protocol including a DNase incubation step to digest any trace genomic DNA present. Levels of ADAR1 variants and LSC-specific transcripts were quantified by qRT-PCR as previously described.^14 RNA-editing site-specific qRT-PCR (RESSqPCR) was performed for variants in AZIN1 transcripts.^53 Additional species-specific primers were also designed to quantify intron retention rates in cells treated with Rebecsinib as a biomarker of response to RNA splicing modulation. Specifically, for the two-step SYBR-green based assays, as previously described,^7,14,53 100-1000 ng of RNA were subjected to cDNA synthesis using the SUPERSCRIPT III™ (ThermoFisher Scientific) kit followed by qRT-PCR using SYBR GreenER (ThermoFisher Scientific) master mix according to the manufacturer's recommended procedures. qRT-PCR was performed using SYBR GREENER SUPER MIX™ (Life Technologies) on BioRad iQ5™, C1000 TOUCH™, or BioRad CFX384™ instruments. Human splice isoform-specific, RNA editing site-specific qPCR (RESSqPCR)^53. Primer sets that have not been previously published were designed and tested for efficiency followed by analyses in samples exposed to Rebecsinib, with species-specific HPRT primers used as controls. Samples with Ct<35 for the species-specific reference gene, HPRT, were included in analyses. Relative mRNA expression values were calculated using the 2^−ΔCT method, with normalization to untreated or vehicle-treated controls.^54 […]

For the molecule `CC[C@H](OC)[C@@H](C)[C@H]1O[C@@H]1[C@@H](O)[C@H](C)/C=C/C=C(\C)[C@H]1OC(=O)C[C@H](O)CC[C@@](C)(O)[C@@H](OC(C)=O)/C=C/[C@@H]1C` [Rebecsinib], in data set [1], the ADAR1 activity result is on record as “repression of ADAR1 activity”; the “expression of LSC-associated transcripts, such as CD44v3 and MCL1-L” value was “reduced expression of LSC-associated transcripts”. Also, the MCL1-S/L transcript ratio entry in data set [2] is listed as “elevated expression of pro-apoptotic MCL1-short (S) compared with anti-apoptotic MCL1-long (L) transcripts”. For the same molecule, the “human HSPC engraftment and mature T or B cell maturation” value in data set [3] is given as “no loss of human HSPC engraftment or mature T or B cell maturation”. Further, the “frequency of normal CD34+ cells in bone marrow” value in data set [3] (in comparison to cord blood transplantation models) was “appeared to be increased”. In data set [4], the RNA editing activity entry is “global downregulation of RNA editing activity that occurred in a dose-responsive manner”. Further, in data set [5], the “sAML LSC burden in bone marrow, peripheral blood, and spleen” value is recorded as “significant reduction in sAML LSC burden”. In data set [6] (normal human CD45+ cells), the “SF3B3 intron retention in bone marrow” value is listed as “no changes in SF3B3 intron retention” and the “SF3B3 intron retention in spleen” value is “trend toward changes in the spleen that were not statistically significant”. Moreover, in data set [6] (therapeutic index, humanized mouse models), the “sensitivity of sAML LSC to splicing modulation versus normal HSPCs” value is “sAML LSC are significantly more sensitive to splicing modulation than normal HSPCs”.
